From US20180360799A1, “Nitrofuran Derivatives That Induce Apoptosis in Breast Cancer Cells by Activating Protein Expression” (Oklahoma Medical Research Foundation, priority 2015, published 2018)

Test system: HCC-1806 cells
Assay: Cell viability, CellTiter-Glo, HCC-1806
Type: cell-based
Settings: Homo sapiens, HCC1806, 72 h; Table 2; cancer cell viability, 3 d treatment; read-out: HCC-1806 IC50
Procedure: Given the known functions of CHOP in ER stress-induced apoptosis^16, 17 and in regulating cancer cell death,^6, 19, 20 the inventor investigated whether compound 1 affects the viability of TNBC cells. Three human TNBC cell lines, HCC-1806, HCC-1143, and HCC-38, were treated with doses of 1 ranging from 0.125 μM to 20 μM and their viability was assessed using the CellTiter-Glo assay, which measures intracellular ATP levels.
HCC-1806, HCC-1143, or HCC-38 cells were seeded at 3×10^3 cells/well in a 384-well plate and treated with compounds at the indicated concentrations. After 3 d treatment, the medium was aspirated and 20 μL/well of CellTiter-Glo reagent was added. Cell viability was measured with an EnVision multilabel plate reader. The IC50 value for cell viability of each compound was calculated with GraphPad Prism (La Jolla, Calif., US).

IC50: 2.8 µM
Compound: CC1CCN(c2ccc(NC(=O)c3ccc([N+](=O)[O-])o3)cc2)CC1 [Compound 3d]
